Source: ChEMBL document CHEMBL1201862, “PubChem BioAssay data set” (2004)
“And” between values parts separate entries of the source, which are not always exact repeats. Equal entries are not always repeated. The source made the active and inactive calls.

Columns and labels:
[1] = luciferase reporter signal suppression in cells – H4 neuroglioma cells, luminescence, dose response (AID 1990); format: functional, cell-based
[2] = Luminescence Cell-Based Dose Response HTS to Identify Inhibitors of 5'UTR Stem-Loop Driven Prion Protein mRNA Translation in H4 Neuroglioblastoma Cells. [Related pubchem assays: 1827 (Project Summary), 1813 (Primary HTS)]; format: functional
[3] = alpha-synuclein stem-loop luciferase translation blockers – H4 neuroglioma cells, luminescence, confirmation (AID 1988); format: functional, cell-based
[4] = Trypanosoma cruzi growth suppression in host cells – NIH3T3 host cells, beta-gal luminescence, confirmation (AID 2044); format: functional, cell-based;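 further: intracellular parasites grown in NIH/3T3 mouse fibroblasts as host cells; luminescent beta-galactosidase reporter signal from transgenic T. cruzi replicating inside host cells; inhibitors lower the luminescence signal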
[5] = NIH3T3 cell viability loss – ATP luminescence, mouse fibroblasts, counter-screen, dose response (AID 2010); format: functional, cell-based;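 further: cells exposed to compound for about 90 hours before reading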
Cytochrome P450 2C19 = Cytochrome P450 2C19 (Homo sapiens, UniProt P33261); experiment: Cytochrome panel assay with activity outcomes. Panel member name: p450-cyp2c19 Compounds with AC50 equal or less than 10 uM are considered active; format: functional
Cytochrome P450 3A4 = Cytochrome P450 3A4 (Homo sapiens, UniProt P08684);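 further: CYP3A4 tested as one member of a cytochrome P450 panel screen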
[6] = target: T1, Rac GTPase-activating protein 1 (Homo sapiens, UniProt Q9H0H5); experiment: blockers of MgcRacGAP-driven Rac1 GTP hydrolysis – biochemical, ADP Hunter fluorescence, primary and confirmatory, confirmation (AID 624330); format: functional
T1 sequence (Q9H0H5 whole entry): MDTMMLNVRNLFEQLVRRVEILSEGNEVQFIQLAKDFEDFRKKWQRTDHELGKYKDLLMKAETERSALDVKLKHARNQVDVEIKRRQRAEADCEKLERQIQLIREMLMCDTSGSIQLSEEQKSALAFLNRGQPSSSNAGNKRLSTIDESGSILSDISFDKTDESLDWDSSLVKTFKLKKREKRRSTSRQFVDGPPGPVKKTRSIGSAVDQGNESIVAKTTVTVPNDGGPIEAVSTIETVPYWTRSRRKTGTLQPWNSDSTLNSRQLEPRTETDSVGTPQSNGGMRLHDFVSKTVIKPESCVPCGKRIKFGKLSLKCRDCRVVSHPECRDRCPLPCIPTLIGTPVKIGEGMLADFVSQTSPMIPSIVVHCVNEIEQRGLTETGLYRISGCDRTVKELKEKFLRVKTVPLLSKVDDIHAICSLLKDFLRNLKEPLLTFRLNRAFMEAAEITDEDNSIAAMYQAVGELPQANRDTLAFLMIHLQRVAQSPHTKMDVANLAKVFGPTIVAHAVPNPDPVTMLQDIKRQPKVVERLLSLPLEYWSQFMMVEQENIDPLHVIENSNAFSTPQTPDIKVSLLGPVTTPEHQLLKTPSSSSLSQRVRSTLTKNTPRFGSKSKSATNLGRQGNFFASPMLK

[7] = Luminescence Cell-Based Dose Retest to Confirm Inhibitors of Cancer Stem Cells. [Related pubchem assays (depositor defined):AID2717, AID2721]; format: functional, Homo sapiens; conditions: Homo sapiens
Paired box protein Pax-8 = Paired box protein Pax-8 (Homo sapiens, UniProt Q06710); experiment: PAX8 transcriptional activity inhibition in RMG-I – RMG-I cells, luciferase, cherry-pick, dose response (AID 687027); format: functional, cell-based;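 further: luciferase reporter driven by Pax8 target thyroperoxidase promoter measured by SteadyGlo luminescence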
[8] = tested on: Streptococcus sp. 'group A'; experiment: Streptococcus pyogenes SK(-)GAS viability under kanamycin – luminescence, BacTiterGlo, confirmation, counter-screen for streptokinase expression inhibitor project, dose response (AID 1900); format: functional, organism-based; conditions: read-out: EC50
Streptococcus = experiment: GAS UMAA2166 growth inhibition – luminescence, BacTiterGlo, counter-screen for streptokinase expression inhibitor project, dose response (AID 1915); format: functional, organism-based;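 further: potency for reduction of bacterial viability or growth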

Cytochrome P450 3A4, sequence (P08684 whole entry): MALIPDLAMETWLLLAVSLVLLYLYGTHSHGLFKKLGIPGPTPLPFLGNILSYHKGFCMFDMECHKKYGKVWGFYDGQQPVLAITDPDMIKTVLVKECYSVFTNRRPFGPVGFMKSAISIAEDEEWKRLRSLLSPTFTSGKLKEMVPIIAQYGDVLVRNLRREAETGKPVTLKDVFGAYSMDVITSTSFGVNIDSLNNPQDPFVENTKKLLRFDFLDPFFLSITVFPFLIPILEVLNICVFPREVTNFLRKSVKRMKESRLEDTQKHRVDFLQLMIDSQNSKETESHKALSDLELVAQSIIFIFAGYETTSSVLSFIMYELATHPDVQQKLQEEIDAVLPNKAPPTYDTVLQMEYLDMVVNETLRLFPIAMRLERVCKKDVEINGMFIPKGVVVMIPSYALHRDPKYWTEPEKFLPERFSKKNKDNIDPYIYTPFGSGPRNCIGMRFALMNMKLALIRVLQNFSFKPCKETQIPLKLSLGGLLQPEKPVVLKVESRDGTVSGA
Cytochrome P450 2C19, sequence (P33261 whole entry): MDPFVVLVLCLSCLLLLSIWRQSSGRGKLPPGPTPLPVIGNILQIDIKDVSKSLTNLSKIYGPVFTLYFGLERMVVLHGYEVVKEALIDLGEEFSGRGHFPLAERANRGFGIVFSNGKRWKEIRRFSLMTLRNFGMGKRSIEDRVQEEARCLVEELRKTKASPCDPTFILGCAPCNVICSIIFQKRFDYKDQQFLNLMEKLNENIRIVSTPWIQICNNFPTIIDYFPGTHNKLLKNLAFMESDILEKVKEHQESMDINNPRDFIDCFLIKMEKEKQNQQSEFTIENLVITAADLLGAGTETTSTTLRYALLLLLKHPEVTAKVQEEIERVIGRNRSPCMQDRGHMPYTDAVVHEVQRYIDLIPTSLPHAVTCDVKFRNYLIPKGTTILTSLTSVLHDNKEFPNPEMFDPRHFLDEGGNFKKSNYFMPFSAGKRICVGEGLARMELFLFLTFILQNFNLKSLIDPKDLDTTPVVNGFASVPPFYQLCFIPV
Paired box protein Pax-8, sequence (Q06710 whole entry): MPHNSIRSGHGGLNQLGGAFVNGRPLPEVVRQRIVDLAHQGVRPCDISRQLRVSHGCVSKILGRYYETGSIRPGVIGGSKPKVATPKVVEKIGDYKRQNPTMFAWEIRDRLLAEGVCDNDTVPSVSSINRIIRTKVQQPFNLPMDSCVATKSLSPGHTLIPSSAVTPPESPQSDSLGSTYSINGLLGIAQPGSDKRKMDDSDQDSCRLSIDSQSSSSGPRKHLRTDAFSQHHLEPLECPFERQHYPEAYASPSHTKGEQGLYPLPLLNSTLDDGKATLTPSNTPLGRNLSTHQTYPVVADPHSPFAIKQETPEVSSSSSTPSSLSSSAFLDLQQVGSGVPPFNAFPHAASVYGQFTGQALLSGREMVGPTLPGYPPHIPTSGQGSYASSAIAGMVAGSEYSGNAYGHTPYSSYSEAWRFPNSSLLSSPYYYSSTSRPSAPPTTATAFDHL

O=C1NC[C@@H](Cc2cccc3ccccc23)N(CC2(c3ccccc3)CC2)C1=O
EC50 [1]: > 120 µM (not active) | EC50 [2]: > 120 µM (not active) | EC50 [3]: > 120 µM (not active)

CN([C@@H](Cc1ccc(OS(=O)(=O)c2cccc3cnccc23)cc1)C(=O)N1CCN(c2ccccc2)CC1)S(=O)(=O)c1cccc2cnccc12
EC50 [4]: 0.4 µM (active) | EC50 [5]: 11.2 µM (active)

C/C(CCC(=O)OC[C@@H]1O[C@H](C#Cc2ccccc2)C=C[C@@H]1Oc1ccc(C)cc1)=N/OC[C@@H](O)[C@H]1O[C@H]2OC(C)(C)O[C@H]2[C@@H]1O
AC50 (Cytochrome P450 2C19; read-out: AC50): 6.31 µM (inconclusive)

CCc1c(C)c(C#N)c2nc3ccccc3n2c1N1CCN(c2cc(C)ccn2)CC1
AC50 (Cytochrome P450 2C19; read-out: AC50): 10 µM (inconclusive)

Cn1c(=O)c2c(nc(NCCNc3nc4c(c(=O)n(C)c(=O)n4C)n3C)n2C)n(C)c1=O
AC50 (Cytochrome P450 2C19): inconclusive

Cc1ccc(NC(=O)CN2CCC(NC(=O)Cc3ccccc3)CC2)cc1C
AC50 (Cytochrome P450 3A4): 14.1 µM (inconclusive)

N#CCCn1c(=O)c(CCc2ccccc2)nc2cnc(Nc3ccccc3)nc21
AC50 (Cytochrome P450 3A4): 1 µM (inconclusive)

CC1(C)Cc2c(sc3c2c(=N)n(Cc2ccco2)c(=O)n3Cc2ccc(Cl)cc2)CO1
EC50 [1]: 14.2 µM (active) | EC50 [2]: > 120 µM (not active) | EC50 [3]: 13.8 µM (active)

CCN1CCN(CCOc2cccc(Oc3ccccc3)c2)CC1
IC50 [6]: 106 µM (active)

Nc1ccc(Oc2ccccc2-c2ccccc2)cc1
EC50 [1]: 2.08 µM (active) | EC50 [2]: 9.75 µM (active) | EC50 [3]: 5.17 µM (active)

COc1ccc(Oc2ncc3nc(-c4ccc(Cl)cc4)c(=O)n(C)c3n2)cc1
AC50 (Cytochrome P450 3A4): 5.01 µM (inconclusive)

NC(=O)CC(NC(=O)Cc1cccc2ccccc12)c1ccc(NCc2ccc(F)cc2)c([N+](=O)[O-])c1 (stereo unspecified)
AC50 [7]: 5.46 µM (active)

CCOc1ccc(N(C)Cc2cc(=O)oc3ccc(OC)cc23)cc1
EC50 [4]: 0.798 µM (active) | EC50 [5]: > 60 µM (not active)

C=C1SC(Nc2c(C)cccc2C)=NC12CCCCC2
EC50 [4]: 0.795 µM (active) | EC50 [5]: 4.83 µM (active)

Cn1cnc2c(NCc3ccccc3)nc(NCCO)nc21 [OLOMOUCINE]
AC50 (Cytochrome P450 3A4): 15.8 µM (inconclusive)

COCCNc1nc(-c2ccccc2CN(C)C)nc2ccccc12
AC50 (Cytochrome P450 3A4): 15.8 µM (inconclusive)

O=C(c1ccc(F)cc1)N1C[C@@H]2N[C@H](C1)[C@@H]2c1ccc(-c2ccc(F)cc2)cc1
AC50 (Paired box protein Pax-8): 18.3 µM (active)

CO/C(O)=C1/C(C)=Nc2ncnn2C1c1cccnc1 (stereo unspecified)
AC50 (Cytochrome P450 3A4): 39.8 µM (inconclusive)

CCC(C)NS(=O)(=O)c1ccc(S(=O)(=O)N(CCc2ccc(OC)c(OC)c2)Cc2cccs2)cc1 (stereo unspecified)
EC50 [4]: 1.72 µM (active) | EC50 [5]: > 60 µM (not active)

COc1ccc(OC)c(C(c2nnnn2C(C)(C)C)N2CCc3ccccc3C2)c1 (stereo unspecified)
EC50 [4]: 2.77 µM (active) | EC50 [5]: 5.8 µM (active)

CCN(CC)c1nc(Nc2ccc(Cl)cc2)nc(OCC#N)n1
EC50 [1]: 15 µM (active) | EC50 [2]: 14.6 µM (active) | EC50 [3]: 16 µM (active)

O=C(CSC(=S)N1CCCCC1)c1ccccc1
EC50 [2]: > 60 µM (not active) | EC50 [3]: 10.8 µM (active)

CCCCN(CC)CCCNC(=O)c1cn(-c2ccc(OC)cc2)c(=O)c2ccccc12
EC50 [4]: 0.496 µM (active) | EC50 [5]: > 60 µM (not active)

COCCn1c(=O)c(-c2cccc(Cl)c2)nc2cncnc21
AC50 (Cytochrome P450 3A4): 15.8 µM (inconclusive)

O=c1c2c3c(sc2nc(NCCO)n1Cc1ccco1)CCCCC3
AC50 [7]: 1.8 µM (active)

COc1ccc(C(=O)N2CCN(C3CCN(Cc4ccccc4)CC3)CC2)cc1OC
IC50 [6]: 93.1 µM (active)

COCC(=O)N1CCC[C@@]2(CCN(C(=O)Nc3cccc(F)c3)C2)C1
AC50 (Cytochrome P450 3A4): 25.1 µM (inconclusive)

COc1ccc(CN2CCN(Cc3ccccc3F)CC2)cc1OC
IC50 [6]: 85.5 µM (active)

Cc1ccc2nc(O)c(C(c3nnnn3C(C)(C)C)N(Cc3ccco3)CC3CCCO3)cc2c1 (stereo unspecified)
EC50 [4]: 3.14 µM (active) | EC50 [5]: > 60 µM (not active)

O=C(CSc1[nH]cnc2ncnc1-2)Nc1nnc(SCc2ccc(Cl)c(Cl)c2)s1
AC50 [7]: 7.23 µM (active)

CC(C)(CN1CCN(Cc2ccccc2)CC1)NS(=O)(=O)c1ccccc1
AC50 [7]: 12.7 µM (active)

Cc1cc(C)cc(NC(=O)CSc2nc3c(oc4ccccc43)c(=O)n2-c2ccccc2)c1
EC50 [4]: 1.26 µM (active) | EC50 [5]: > 60 µM (inconclusive)

O=c1c(-c2cccc(F)c2)nc2cncnc2n1Cc1ccccc1
AC50 (Cytochrome P450 3A4): 10 µM (inconclusive)

COc1cc(/C=N/N2CCN(c3ccccc3OC)CC2)ccc1O
IC50 [6]: 36.7 µM (active)

Cc1ccc(C)c(NC(S)=NN=C(S)Nc2ccc(C(C)C)cc2)c1
EC50 [4]: 2.69 µM (active) | EC50 [5]: > 60 µM (not active)

Cc1nn(S(=O)(=O)c2ccc([N+](=O)[O-])cc2)c(C)c1Sc1ccccc1
EC50 [4]: 1.16 µM (active) | EC50 [5]: > 60 µM (not active)

COc1cccc(CN2CCCC(CNC(=O)c3ccc(F)cc3)C2)c1OC (stereo unspecified)
EC50 [4]: 0.704 µM (active) | EC50 [5]: > 60 µM (inconclusive)

COc1ccc(C(=O)C[n+]2nc(CNc3ccc(Br)cc3)n3c2CCCCC3)cc1
EC50 [4]: 0.898 µM (active) | EC50 [5]: > 60 µM (not active)

CSc1nc2c(c(C(F)(F)F)n1)CC(C)CC2 (stereo unspecified)
AC50 (Cytochrome P450 2C19; read-out: AC50): 39.8 µM (inconclusive)

CCCc1cc2c(n1Cc1ccc(C)cc1)C(C)C1CN(C(=O)c3ccccc3)C(C)(C(=O)OC)C21 (stereo unspecified)
AC50 (Cytochrome P450 2C19; read-out: AC50): 25.1 µM (inconclusive)

Cc1cc2c(c(=O)n1C1CC1)C(c1cccc(Cl)c1)C(C#N)=C(N)O2 (stereo unspecified)
EC50 [1]: > 120 µM (not active) | EC50 [2]: > 120 µM (not active) | EC50 [3]: > 120 µM (not active)

Cc1ccc(Cl)cc1NC(=S)N/N=C/c1cccc2ccccc12
EC50 [4]: 2.97 µM (active) | EC50 [5]: 0.425 µM (active) | AC50 [7]: 0.167 µM (active)

CCOC(=O)Nc1ccc(OCc2nnc3c4ccccc4c(C)nn23)cc1
EC50 [8]: < 0.06 µM (active) | EC50 (Streptococcus): 0.676 µM (active)

COc1ccc(-n2nc(C(=O)NCC(=O)N3CCN(Cc4ccc5c(c4)OCO5)CC3)c3ccccc3c2=O)cc1OC
EC50 [1]: 21.3 µM (active) | EC50 [2]: > 120 µM (not active) | EC50 [3]: > 120 µM (not active)

CCOC(=O)C1=C(c2ccccc2)NC(SCC(=O)Nc2ccc(C)cc2)=C(C#N)C1c1ccco1 (stereo unspecified)
EC50 [4]: 2.91 µM (active) | EC50 [5]: > 60 µM (not active)

O=C(NCc1ccco1)c1cc(-c2ccc3c(c2)OCO3)on1
AC50 [7]: 1.14 µM (active)

CCCC(C(=O)OCCN(CC)CC)(c1ccccc1)c1ccccc1 [PROADIFEN]
AC50 (Cytochrome P450 2C19; read-out: AC50): 7.94 µM (inconclusive) and 3.98 µM (inconclusive)

Nc1ccc2[nH]c(-c3cccnc3)nc2c1
IC50 [6]: 155 µM (active)

CC(C)CN1CC[C@@]2(CCCN(C(=O)c3ccco3)C2)C1
AC50 (Cytochrome P450 3A4): 12.6 µM (inconclusive)

CN(C)c1ccc(C2CNC(c3ccc(Cl)c([N+](=O)[O-])c3)c3[nH]c4ccccc4c32)cc1 (stereo unspecified)
EC50 [4]: 1.88 µM (active) | EC50 [5]: > 60 µM (not active)

N#CCSc1nc2c(c(=O)n1Cc1ccco1)C1(CCCC1)Cc1ccccc1-2
AC50 [7]: 0.686 µM (active)

Cc1c(-c2nc(N)nc(Nc3ccc(F)cc3)n2)oc2ccccc12
EC50 [4]: 2.76 µM (active) | EC50 [5]: 13.4 µM (active)

Oc1nc2ccc(Cl)cc2c(-c2ccccc2)c1SC(=S)N1CCOCC1
EC50 [8]: 0.827 µM (active) | EC50 (Streptococcus): 1.3 µM (active)

O=C(c1ccco1)N1CCC2(CC1)CN(c1cccc(-c3ccccc3)c1)C2
AC50 (Cytochrome P450 2C19; read-out: AC50): 3.98 µM (inconclusive)

O=C(NC1CCCCC1)Oc1cc2oc(=O)sc2cc1Br
EC50 [1]: > 120 µM (not active) | EC50 [2]: > 120 µM (not active) | EC50 [3]: > 120 µM (not active)

COC(=O)Nc1nc2cc(SC(C)C)ccc2[nH]1
AC50 (Cytochrome P450 2C19; read-out: AC50): 10 µM (inconclusive)

COc1ccc(OC(=O)COc2cccc(C)c2)cc1
IC50 [6]: 52.9 µM (active)

CC(=O)c1c(/N=C/N(C)C)nc(C)nc1-c1ccccc1
AC50 (Cytochrome P450 2C19; read-out: AC50): 25.1 µM (inconclusive)

Cc1ccc(S(=O)(=O)c2c(N)n(/N=C/c3ccco3)c3nc4ccccc4nc23)cc1
EC50 [4]: 1.8 µM (active) | EC50 [5]: > 60 µM (not active)

CCOc1ccccc1-c1nc(-c2ccc(NC(=O)Cc3ccccc3OC)cc2)no1
EC50 [4]: 1.21 µM (active) | EC50 [5]: 10.2 µM (active)
